Literature values, collected in patent US20250325531A1, “TREATMENT OF SYSTOLIC DYSFUNCTION” (MyoKardia, Inc., priority 2024, published 2025).

Test system: healthy volunteers / HFrEF
Conditions: high doses; correlated with increase in SET; cited from earlier work

SMILES: COC(=O)N1CCN(Cc2cccc(NC(=O)Nc3ccc(C)nc3)c2F)CC1 [omecamtiv mecarbil]
- ischemia in healthy volunteers: resulted in ischemia
